Test results published in patent US10988459B2 (priority 2015, dated 2021).

molecular target: human RIP1 kinase domain (2-375) (Homo sapiens (Human), UniProt Q13546); experiment: biochemical; format: biochemical; settings: Table 1; apparent Ki (Morrison tight-binding fit); 50 nM RIP1 kinase domain, 50 uM ATP, 2 hours incubation; read-out: RIP1 Ki
In short: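 Ki^app comes from Morrison tight-binding fits of fractional activity versus compound concentration. Activity was read as ADP production, via tracer displacement lowering fluorescence polarization (633 nm laser). Conditions: 2 h, 50 nM insect-cell-expressed enzyme, 50 uM ATP, 30 mM MgCl2, 1 mM DTT, 0.5% DMSO, pH 7.5 Hepes.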

Sequence of human RIP1 kinase domain (2-375) (Q13546 2-375): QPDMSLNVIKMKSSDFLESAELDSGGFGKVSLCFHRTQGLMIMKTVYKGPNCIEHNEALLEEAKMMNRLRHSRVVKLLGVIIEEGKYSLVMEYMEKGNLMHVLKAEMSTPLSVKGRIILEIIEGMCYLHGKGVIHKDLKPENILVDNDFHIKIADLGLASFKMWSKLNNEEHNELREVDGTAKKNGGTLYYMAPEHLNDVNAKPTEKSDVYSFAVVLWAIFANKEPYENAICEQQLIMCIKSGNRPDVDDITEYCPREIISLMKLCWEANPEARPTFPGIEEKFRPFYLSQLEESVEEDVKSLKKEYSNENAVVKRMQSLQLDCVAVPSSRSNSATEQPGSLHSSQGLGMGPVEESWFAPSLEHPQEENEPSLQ

Compound	Ki
CC1Cn2c(cnc2C(=O)N[C@H]2COc3ccccc3N(C)C2=O)CO1 (stereo partly drawn) [Example 10, 6-methyl-N—((S)-5-methyl-4-oxo-2,3,4,5-tetrahydrobenzo[b][1,4]oxazepin-3-yl)-6,8-dihydro-5H-imidazo[5,1-c][1,4]oxazine-3-carboxamide]	2600 nM
CN1C(=O)[C@@H](NC(=O)c2n[nH]c3c2CCCCC3)COc2ccccc21 [Example 44, (S)-N-(5-methyl-4-oxo-2,3,4,5-tetrahydrobenzo[b][1,4]oxazepin-3-yl)-1,4,5,6,7,8-hexahydrocyclohepta[c]pyrazole-3-carboxamide]	3000 nM
CN1C(=O)[C@@H](NC(=O)c2n[nH]c3c2CCCC3)COc2ccccc21 [Example 32, (S)—N-(5-methyl-4-oxo-2,3,4,5-tetrahydrobenzo[b][1,4]oxazepin-3-yl)-4,5,6,7-tetrahydro-1H-indazole-3-carboxamide]	3400 nM

same assay, conditions: Table 3; apparent Ki (Morrison tight-binding fit); 50 nM RIP1 kinase domain, 50 uM ATP, 2 hours incubation; read-out: Ki

Compound	Ki
CCC1CCc2n[nH]c(C(=O)N[C@H]3COc4ccccc4N(C)C3=O)c2C1 (stereo partly drawn) [Example 335, 5-ethyl-N-((S)-5-methyl-4-oxo-2,3,4,5-tetrahydrobenzo[b][1,4]oxazepin-3-yl)-4,5,6,7-tetrahydro-2H-indazole-3-carboxamide]	13 nM

same assay, conditions: Table 5; apparent Ki (Morrison tight-binding fit); 50 nM RIP1 kinase domain, 50 uM ATP, 2 hours incubation; read-out: Ki

Ki	Compound
12 nM	C[C@@]1(C(F)(F)F)OCc2cnc(C(=O)N[C@H]3CCc4cc(F)cc(F)c4NC3=O)nc21 [Example 749, (7R)-7-methyl-N-[(3S)-7,9-difluoro-2-oxo-1,3,4,5-tetrahydro-1-benzazepin-3-yl]-7-(trifluoromethyl)-5H-furo[3,4-d]pyrimidine-2-carboxamide]
225 nM	COCCNCc1cc2n(n1)CC[C@H](NC(=O)c1ncn(Cc3ccccc3)n1)C(=O)N2C (single isomer, unassigned) [Example 728]
142 nM	CN1C(=O)[C@@H](NC(=O)c2ncn(Cc3ccccc3)n2)CCn2nc(CN3CC(F)C3)cc21 [Example 782, (S)-1-benzyl-N-(2-((3-fluoroazetidin-1-yl)methyl)-4-methyl-5-oxo-5,6,7,8-tetrahydro-4H-pyrazolo[1,5-a][1,3]diazepin-6-yl)-1H-1,2,4-triazole-3-carboxamide]
189 nM	CN1C(=O)[C@@H](NC(=O)c2ncn(Cc3ccccc3F)n2)CCn2nc(CCN3CC(F)(F)C3)cc21 [Example 773, 1-[(2-fluorophenyl)methyl]-N-[(6S)-2-[2-(3,3-difluoroazetidin-1-yl)ethyl]-4-methyl-5-oxo-7,8-dihydro-6H-pyrazolo[1,5-a][1,3]diazepin-6-yl]-1,2,4-triazole-3-carboxamide]

same assay, conditions: human RIP1 kinase domain (2-375), 50 uM ATP, 2 hours incubation, Transcreener ADP assay; read-out: RIP1 Ki

Ki	Compound
156 nM	CN1C(=O)[C@@H](NC(=O)c2n[nH]c3c2CC2(CCC2)OC3)COc2ccccc21 [Example 211, (S)—N-(5-methyl-4-oxo-2,3,4,5-tetrahydrobenzo[b][1,4]oxazepin-3-yl)-4′,7′-dihydro-1′H-spiro[cyclobutane-1,5′-pyrano[3,4-c]pyrazole]-3′-carboxamide]
20.8 nM	O=C(N[C@H]1COc2cc(F)cc(F)c2NC1=O)c1n[nH]c2c1C[C@@H](C(F)(F)F)CC2 (single isomer, unassigned) [Example 86]
248 nM	CN1C(=O)[C@@H](NC(=O)c2n[nH]c3ccc(C4CC4)nc23)COc2ccccc21 [Example 144, 5-cyclopropyl-N-[(3S)-5-methyl-4-oxo-2,3-dihydro-1,5-benzoxazepin-3-yl]-1H-pyrazolo[4,3-b]pyridine-3-carboxamide]
388 nM	CN1C(=O)[C@@H](NC(=O)c2ncn(Cc3ccccc3)n2)CC[C@@H]2[C@H]1C2(F)F (single isomer, unassigned) [Example 129]

same assay, conditions: human RIP1 kinase domain (2-375), Transcreener ADP assay, 50 uM ATP, 2 hours incubation; read-out: RIP1 Ki

Ki	Compound
88.7 nM	CN1C(=O)[C@@H](NC(=O)c2cc3c(cn2)COC32CCOC2)COc2ccccc21 (stereo partly drawn) [Example 232, N—((S)-5-methyl-4-oxo-2,3,4,5-tetrahydrobenzo[b][1,4]oxazepin-3-yl)-4,5-dihydro-2H,3′ H-spiro[furan-3,1′-furo[3,4-c]pyridine]-6′-carboxamide]
43.5 nM	CN1C(=O)[C@H](NC(=O)c2ncn(Cc3ccc(F)c(F)c3)n2)CCn2nc([C@H]3CC3(F)F)cc21 [Example 314, 1-(3,4-difluorobenzyl)-N—((R)-2-((R)-2,2-difluorocyclopropyl)-4-methyl-5-oxo-5,6,7,8-tetrahydro-4H-pyrazolo[1,5-a][1,3]diazepin-6-yl)-1H-1,2,4-triazole-3-carboxamide]
31.8 nM	CN1C(=O)[C@H](NC(=O)c2ncn(Cc3ccc(F)cc3F)n2)CCn2nc([C@H]3CC3(F)F)cc21 [Example 316, 1-(2,4-difluorobenzyl)-N—((R)-2-((R)-2,2-difluorocyclopropyl)-4-methyl-5-oxo-5,6,7,8-tetrahydro-4H-pyrazolo[1,5-a][1,3]diazepin-6-yl)-1H-1,2,4-triazole-3-carboxamide]
5700 nM	Cc1cc(Cn2cnc(C(=O)NC3CCn4nc(C5CC5)cc4N(C)C3=O)n2)ccn1 (stereo not shown) [Example 242, N-(2-cyclopropyl-4-methyl-5-oxo-5,6,7,8-tetrahydro-4H-pyrazolo[1,5-a][1,3]diazepin-6-yl)-1-((2-methylpyridin-4-yl)methyl)-1H-1,2,4-triazole-3-carboxamide]

same assay, conditions: read-out: RIP1 Ki

Compound	Ki
CN1C(=O)[C@@H](NC(=O)c2n[nH]c3c2C[C@H](C(C)(C)C)CC3)COc2ccccc21 [Example 61, (R)-5-(tert-butyl)-N-((S)-5-methyl-4-oxo-2,3,4,5-tetrahydrobenzo[b][1,4]oxazepin-3-yl)-4,5,6,7-tetrahydro-1H-indazole-3-carboxamide]	48 nM

same assay, conditions: tight-binding apparent inhibition constant; human RIP1 kinase domain (2-375) 50 nM, 50 uM ATP, 2 hours; read-out: Ki

Compound	Ki
CN1C(=O)[C@@H](NC(=O)c2nc3n(n2)[C@@H](c2ccccc2F)CC3)COc2ccccc21 [Example 468, (R)-5-(2-fluorophenyl)-N—((S)-5-methyl-4-oxo-2,3,4,5-tetrahydrobenzo[b][1,4]oxazepin-3-yl)-6,7-dihydro-5H-pyrrolo[1,2-b][1,2,4]triazole-2-carboxamide]	4 nM
CN1C(=O)[C@@H](NC(=O)c2ncn(C[C@H]3C[C@H](C(F)(F)F)C3)n2)CCn2nccc21 [Example 494]	110 nM
CN1C(=O)[C@@H](NC(=O)c2cc3c(cn2)cnn3C(F)(F)F)COc2ccccc21 [Example 356, (S)—N-(5-methyl-4-oxo-2,3,4,5-tetrahydrobenzo[b][1,4]oxazepin-3-yl)-1-(trifluoromethyl)-1H-pyrazolo[4,3-c]pyridine-6-carboxamide]	7.02 nM
CN1C(=O)[C@@H](NC(=O)c2nc3cccc(-c4ccoc4)n3n2)COc2ccccc21 [Example 399, (S)-5-(furan-3-yl)-N-(5-methyl-4-oxo-2,3,4,5-tetrahydrobenzo[b][1,4]oxazepin-3-yl)-[1,2, 4]triazolo[1,5-a]pyridine-2-carboxamide]	4.5 nM
CN1C(=O)[C@@H](NC(=O)c2ncn(Cc3ccccc3)n2)CC[C@@H]2[C@H]1C2(F)F (single isomer, unassigned) [Example 364]	450 nM
CN1C(=O)[C@@H](NC(=O)c2ncn(Cc3c(F)cccc3F)n2)CCn2nccc21 [Example 343, 1-[(2,6-difluorophenyl)methyl]-N-[(6S)-4-methyl-5-oxo-7,8-dihydro-6H-pyrazolo[1,5-a][1,3]diazepin-6-yl]-1,2,4-triazole-3-carboxamide]	9.73 nM
CN1C(=O)[C@@H](NC(=O)c2nc3n(n2)CCOC3c2ccccc2)COc2ccccc21 (stereo partly drawn) [Example 515, 8-phenyl-N-[(3S)-5-methyl-4-oxo-2,3-dihydro-1,5-benzoxazepin-3-yl]-6,8-dihydro-5H-[1,2,4]triazolo[5,1-c][1,4]oxazine-2-carboxamide]	29 nM

Now from value to molecule:

Ki	Compound
140 nM	CN1C(=O)[C@@H](NC(=O)c2ncn(Cc3ncccc3F)n2)CCn2nc(C3CC3)cc21 [Example 655]
176 nM	Cc1cc2n(n1)CC[C@H](NC(=O)c1ncc3c(n1)[C@](C)(CC(F)(F)F)OC3)C(=O)N2C (racemic) [Example 689, rac-(75)-7-methyl-N-[rac-(6S)-2,4-dimethyl-5-oxo-7,8-dihydro-6H-pyrazolo[1,5-a][1,3diazepin-6-yl]-7-(2,2,2-trifluoroethyl)-5H-furo[3,4-d]pyrimidine-2-carboxamide]
23 nM	CN1C(=O)[C@@H](NC(=O)c2nc3n(n2)CCC3c2ccccc2)COc2ccccc21 (stereo partly drawn) [Example 571, 7-phenyl-N-[(3S)-5-methyl-4-oxo-2,3-dihydro-1,5-benzoxazepin-3-yl]-6,7-dihydro-5H-pyrrolo[1,2-b][1,2,4]triazole-2-carboxamide]
4.7 nM	CN1C(=O)[C@@H](NC(=O)c2ncc3cnn(-c4c(F)cccc4F)c3n2)COc2ccccc21 [Example 595]
3.5 nM	CN1C(=O)[C@@H](NC(=O)c2ncc3cnn(-c4ccccc4)c3n2)COc2ccccc21 [Example 536, phenyl-N-[(3S)-5-methyl-4-oxo-2,3-dihydro-1,5-benzoxazepin-3-yl]pyrazolo[3,4-d]pyrimidine-6-carboxamide]
13 nM	CN1C(=O)[C@@H](NC(=O)c2ncn(Cc3cccc(F)c3F)n2)CCn2nc(C(F)(F)F)cc21 [Example 523, 1-[(2,3-difluorophenyl)methyl]-N-(6S)-4-methyl-5-oxo-2-(trifluoromethyl)-7,8-dihydro-6H-pyrazolo[1,5-a][1,3]diazepin-6-yl-1,2,4-triazole-3-carboxamide]
8.1 nM	CN1C(=O)[C@@H](NC(=O)c2nc3c(-c4ccccc4)cccn3n2)COc2ccccc21 [Example 568, 8-phenyl-N-[(3S)-5-methyl-4-oxo-2,3-dihydro-1,5-benzoxazepin-3-yl]-[1,2,4]triazolo[1,5-a]pyridine-2-carboxamide]
